Bridge positions count the residues as written; N and C are the ends. Square brackets hold non-standard residues; d marks the D form. Peptide text beside a SMILES is read from it. * marks the point of attachment. Palmitoyl = CCCCCCCCCCCCCCCC(=O)*; Lauroyl = CCCCCCCCCCCC(=O)*; Dab = NCC[C@H](N)C(=O)O
What was measured:
human CXCR4 = biological target: T1, human CXCR4 (Homo sapiens, UniProt P61073); experiment: Ca2+-assay: CXCR4-antagonizing activity (SDF-1 induced calcium mobilization); assay type: cell-based; settings: mouse pre-B cell line 300-19 transfected with human CXCR4; SDF-1 induced Ca2+ mobilization; read-out: IC50% [nM] ± SD, CXCR4 receptor
T1 construct: expressed in transfected cells; host or cells: mouse pre-B cell line 300-19
How it was run: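 Mouse pre-B 300-19 cells stably expressing human CXCR4, loaded with Calcium 4 dye in HBSS/20 mM HEPES pH 7.4/0.1% BSA for 1 h at RT. Peptides added before SDF-1; fluorescence (ex 485/em 525 nm) followed for 90 s. IC50 from four-parameter logistic fit of % maximal SDF-1 response.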

in vivo = experiment: in vivo; set-up: species or system male CD-1 mice; settings: for AUC0-∞ dcor. / Cmax dcor.: mouse
Method: 2.7. Pharmacokinetic Study (PK)
Pharmacokinetic study after intravenous (i.v.) and subcutaneous (s.c.) administration was performed for the compounds of Ex. 17, Ex. 20, Ex. 25, Ex. 26, Ex. 28, and Ex. 29. […] The compounds of Ex. 17, Ex. 25, Ex. 26, Ex. 28, and Ex. 29 were administered i.v. and s.c. as a cassette whereas for the compound of Ex. 20a single i.v. and s.c. administration was accomplished.
30 grams (±20%) male CD-1 mice obtained from Janvier, France, were used in the study testing the cassette compounds. The vehicle, phosphate buffered saline containing 5% DMSO, was added to give a final concentration of 0.5 mg/mL of the compounds (i.v. route and s.c. route). The volume was 2 mL/kg i.v. and 10 mL/kg s.c. and the cassette compounds were injected to give a final intravenous dose of 1 mg/kg and an subcutaneous dose of 5 mg/kg. Approximately 500 μL of blood were removed from the opened heart at predetermined time intervals (5, 15, 30 min and 1, 2, 4, 8 and 12 hours for the i.v. study and 5, 15, 30 min and 1, 2, 4, 8, 12 and 24 hours for the s.c. study) and added to heparinized tubes. Plasma was removed from pelleted cells upon centrifugation and frozen at −80° C. prior to HPLC-MS analysis. For the compound of Ex. 20 30 grams (±20%) male CD-1 mice obtained from Charles River Laboratories Deutschland GmbH were used. The vehicle, phosphate buffered saline, was added to give a final concentration of 0.2 mg/mL of the compound (i.v. route) and 1 mg/mL (s.c. route). The volume was 5 mL/kg i.v. and s.c. and the compound was injected to give a final intravenous dose of 1 mg/kg and an subcutaneous dose of 5 mg/kg. Approximately 300-400 μL of blood was removed under light isoflurane anesthesia by cardiac puncture at predetermined time intervals (5, 15, 30 min and 1, 2, 3, 4, 6, 12 hours for the i.v. study and 15, min and 1, 2, 4, 6, 8, 12 and 24 hours for the s.c. study) and added to heparinized tubes. Plasma was removed from pelleted cells upon centrifugation and frozen at −80° C. prior to HPLC-MS analysis.
Preparation of the Plasma Calibration Samples
“Blank” mouse plasma from untreated animals was used. Aliquots of plasma of 0.2 mL each were spiked with 50 ng of propranolol (Internal Standard, IS), (sample preparation by solid phase extraction on OASIS® HLB cartridges [Waters]) and with known amounts of Ex. 20 in order to obtain 9 plasma calibration samples in the range 10-5000 nM. The OASIS® HLB cartridges were conditioned with 1 mL of methanol and then with 1 mL of 1% NH3 in water. Samples were then diluted with 700 μL of 1% NH3 in water and loaded. The plate was washed with 1 mL of methanol/1% NH3 in water 5/95 (v/v). Elution was performed using 1 mL of 0.1% TFA in methanol.
The plate containing eluates was introduced into the concentrator system and taken to dryness. The residues were dissolved in 100 μL of formic acid 0.1%/acetonitrile, 95/5 (v/v) and analysed in the HPLC/MS on a reverse phase analytical column (Jupiter C18, 50×2.0 mm, 5 μm, Phenomenex), using gradient elution (mobile phases A: 0.1% formic acid in water, B: acetonitrile; from 5% B to 100% B in 2 min.).
Preparation of Plasma Samples
Samples coming from animal treatments were pooled in order to obtain an appropriate volume for the extraction. If the total volume obtained was less than 0.2 mL the appropriate amount of “blank” mouse plasma was added in order to keep the matrix identical to the calibration curve. Samples were than spiked with IS and processed as described for the calibration curve.
Pharmacokinetic Evaluation
In order to perform PK analysis pooled plasma data (n=3 mice) was used. PK parameters were calculated by WinNonLin™ software version 5.2.1 (Pharsight—A Certara™ Company, Mountain View, Calif. 94041 USA) using non-compartmental analysis with a linear up/log down trapezoidal calculation method. For the terminal elimination phase at least 3 time points and a correlation coefficient greater than 0.85 was used. […]

T1 sequence (P61073 whole entry): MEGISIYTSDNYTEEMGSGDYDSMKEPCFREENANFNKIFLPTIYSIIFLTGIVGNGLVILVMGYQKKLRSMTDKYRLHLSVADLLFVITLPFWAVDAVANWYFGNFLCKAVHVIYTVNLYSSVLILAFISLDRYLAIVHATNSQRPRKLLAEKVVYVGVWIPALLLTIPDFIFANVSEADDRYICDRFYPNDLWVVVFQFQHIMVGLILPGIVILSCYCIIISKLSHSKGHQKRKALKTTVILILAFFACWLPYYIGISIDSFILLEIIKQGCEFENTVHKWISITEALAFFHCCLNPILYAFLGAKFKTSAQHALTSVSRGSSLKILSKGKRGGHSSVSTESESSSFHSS

CCCCCCCCCCCC(=O)NCCCC[C@@H]1NC(=O)[C@H](Cc2ccc(O)cc2)NC(=O)[C@@H]2CSSC[C@H](NC(=O)[C@H](C)NC(=O)[C@H](Cc3c[nH]cn3)NC(=O)[C@H](Cc3ccc(O)cc3)NC(=O)[C@@H]3CCCN3C(=O)[C@H]3CCCN3C(=O)[C@H](CCCCN)NC1=O)C(=O)N[C@@H](CCCNC(=N)N)C(=O)N[C@@H](C)C(=O)N1CCC[C@@H]1C(=O)N[C@@H](CCN)C(=O)N[C@@H](CCCNC(=N)N)C(=O)N[C@@H](Cc1ccc(O)cc1)C(=O)N2 [Ex. 17] (cyclo(YHACRA[dP][Dab]RYCYK(Lauroyl)K[dP]P); disulfide 4-11)
IC50 (human CXCR4): 2.8 ± 0.4 nM
bioavailability (in vivo; male, CD-1, mouse): 114%
AUC(0-inf) (in vivo; male, CD-1, mouse, iv, 1 mg/kg): 2950 ng·h/mL
Cmax (in vivo; male, CD-1, mouse, iv, 1 mg/kg): 2640 ng/mL
Tmax (in vivo; male, CD-1, mouse, iv, 1 mg/kg): 0.1 h
half-life (in vivo; male, CD-1, mouse, iv, 1 mg/kg): 2 h
level at 0.083 h (in vivo; male, CD-1, mouse, iv, 1 mg/kg): 2640 ng/mL
level at 0.25 h (in vivo; male, CD-1, mouse, iv, 1 mg/kg): 2030 ng/mL
level at 0.5 h (in vivo; male, CD-1, mouse, iv, 1 mg/kg): 1560 ng/mL
level at 1 h (in vivo; male, CD-1, mouse, iv, 1 mg/kg): 1290 ng/mL
level at 2 h (in vivo; male, CD-1, mouse, iv, 1 mg/kg): 178 ng/mL
level at 4 h (in vivo; male, CD-1, mouse, iv, 1 mg/kg): 141 ng/mL
level at 8 h (in vivo; male, CD-1, mouse, iv, 1 mg/kg): 15 ng/mL
level at 12 h (in vivo; male, CD-1, mouse, iv, 1 mg/kg): 8 ng/mL
AUC(0-inf) (in vivo; male, CD-1, mouse, sc, 5 mg/kg): 16800 ng·h/mL
Cmax (in vivo; male, CD-1, mouse, sc, 5 mg/kg): 1750 ng/mL
Tmax (in vivo; male, CD-1, mouse, sc, 5 mg/kg): 2 h
half-life (in vivo; male, CD-1, mouse, sc, 5 mg/kg): 4.3 h
level at 0.25 h (in vivo; male, CD-1, mouse, sc, 5 mg/kg): 140 ng/mL
level at 0.5 h (in vivo; male, CD-1, mouse, sc, 5 mg/kg): 450 ng/mL
level at 1 h (in vivo; male, CD-1, mouse, sc, 5 mg/kg): 874 ng/mL
level at 2 h (in vivo; male, CD-1, mouse, sc, 5 mg/kg): 1750 ng/mL
level at 4 h (in vivo; male, CD-1, mouse, sc, 5 mg/kg): 1410 ng/mL
level at 8 h (in vivo; male, CD-1, mouse, sc, 5 mg/kg): 1240 ng/mL
level at 12 h (in vivo; male, CD-1, mouse, sc, 5 mg/kg): 567 ng/mL
level at 24 h (in vivo; male, CD-1, mouse, sc, 5 mg/kg): 65 ng/mL
AUC0-∞ dcor. (in vivo; iv, 1 mg/kg): 2950.8 kg·ng·h/mg/mL
Cmax dcor. (in vivo; iv, 1 mg/kg): 2640.0 kg·ng/mg/mL
AUC0-∞ dcor. (in vivo; sc, 5 mg/kg): 3357.9 kg·ng·h/mg/mL
Cmax dcor. (in vivo; sc, 5 mg/kg): 350.6 kg·ng/mg/mL

CCCCCCCCCCCCCCCC(=O)NCCCC[C@@H]1NC(=O)[C@H](Cc2ccc(O)cc2)NC(=O)[C@@H]2CSSC[C@H](NC(=O)[C@H](Cc3ccc(O)cc3)NC(=O)[C@H](Cc3c[nH]cn3)NC(=O)[C@H](Cc3ccc(O)cc3)NC(=O)[C@@H]3CCCN3C(=O)[C@H]3CCCN3C(=O)[C@H](CCCCN)NC1=O)C(=O)N[C@@H](CO)C(=O)N[C@@H](C)C(=O)N1CCC[C@@H]1C(=O)N[C@@H](CCN)C(=O)N[C@@H](CCCNC(=N)N)C(=O)N[C@@H](Cc1ccc(O)cc1)C(=O)N2 [Ex. 20] (cyclo(YHYCSA[dP][Dab]RYCYK(Palmitoyl)K[dP]P); disulfide 4-11)
IC50 (human CXCR4): 4 ± 1.8 nM
bioavailability (in vivo; male, CD-1, mouse): 139%
AUC(0-inf) (in vivo; male, CD-1, mouse, iv, 1 mg/kg): 5500 ng·h/mL
Cmax (in vivo; male, CD-1, mouse, iv, 1 mg/kg): 2210 ng/mL
Tmax (in vivo; male, CD-1, mouse, iv, 1 mg/kg): 0.5 h
half-life (in vivo; male, CD-1, mouse, iv, 1 mg/kg): 2 h
level at 0.083 h (in vivo; male, CD-1, mouse, iv, 1 mg/kg): 777 ng/mL
level at 0.25 h (in vivo; male, CD-1, mouse, iv, 1 mg/kg): 1520 ng/mL
level at 0.5 h (in vivo; male, CD-1, mouse, iv, 1 mg/kg): 2210 ng/mL
level at 1 h (in vivo; male, CD-1, mouse, iv, 1 mg/kg): 1380 ng/mL
level at 2 h (in vivo; male, CD-1, mouse, iv, 1 mg/kg): 992 ng/mL
level at 3 h (in vivo; male, CD-1, mouse, iv, 1 mg/kg): 638 ng/mL
level at 4 h (in vivo; male, CD-1, mouse, iv, 1 mg/kg): 486 ng/mL
level at 6 h (in vivo; male, CD-1, mouse, iv, 1 mg/kg): 234 ng/mL
level at 12 h (in vivo; male, CD-1, mouse, iv, 1 mg/kg): 13 ng/mL
AUC(0-inf) (in vivo; male, CD-1, mouse, sc, 5 mg/kg): 38200 ng·h/mL
Cmax (in vivo; male, CD-1, mouse, sc, 5 mg/kg): 3040 ng/mL
Tmax (in vivo; male, CD-1, mouse, sc, 5 mg/kg): 12 h
half-life (in vivo; male, CD-1, mouse, sc, 5 mg/kg): 2.9 h
level at 0.5 h (in vivo; male, CD-1, mouse, sc, 5 mg/kg): 70 ng/mL
level at 1 h (in vivo; male, CD-1, mouse, sc, 5 mg/kg): 342 ng/mL
level at 2 h (in vivo; male, CD-1, mouse, sc, 5 mg/kg): 868 ng/mL
level at 4 h (in vivo; male, CD-1, mouse, sc, 5 mg/kg): 1700 ng/mL
level at 6 h (in vivo; male, CD-1, mouse, sc, 5 mg/kg): 2800 ng/mL
level at 8 h (in vivo; male, CD-1, mouse, sc, 5 mg/kg): 2860 ng/mL
level at 12 h (in vivo; male, CD-1, mouse, sc, 5 mg/kg): 3040 ng/mL
level at 24 h (in vivo; male, CD-1, mouse, sc, 5 mg/kg): 179 ng/mL
AUC0-∞ dcor. (in vivo; iv, 1 mg/kg): 5504.8 kg·ng·h/mg/mL
Cmax dcor. (in vivo; iv, 1 mg/kg): 2210.0 kg·ng/mg/mL
AUC0-∞ dcor. (in vivo; sc, 5 mg/kg): 7630.8 kg·ng·h/mg/mL
Cmax dcor. (in vivo; sc, 5 mg/kg): 608.7 kg·ng/mg/mL
